Results from US20200338040A1, “METHODS FOR TREATING ALZHEIMER'S DISEASE AND RELATED DISORDERS” (The General Hospital Corporation, priority 2015, published 2020).
Where a name gives a salt, the structure may show the parent alone.

Legend:
[1] = target: T1, ISF Aβx-40 (Homo sapiens, UniProt P05067); test: In vivo microdialysis of ISF in APP/PS1 mice, Aβx-40; parameters: species or system mouse; conditions: 3.15 mg/kg i.p. daily for one week
T1 construct: commercially available kits BNT77/BA27 for Aβ40 or BNT77/BC05 for Aβx-42; from tissue; host or cells: brain extracts (TBS, Triton, SDS) or hippocampal interstitial fluid of APPswe/PS1dE9 mice

[2] = tested on: amyloid deposits; test: Immunohistochemical amyloid burden and density of amyloid deposits in APP/PS1 mice; format: in vivo, mouse; conditions: one week of treatment
[3] = target: T2, Aβ42 (Homo sapiens, UniProt P05067); test: Aβ42 fibril formation by transmission electron microscopy; format: biochemical
T2 construct: Aberrant Aβ peptide isoforms that are 40 or 42 amino acids in length (Aβ-40/42); host or cells: synthetic
Procedure: The anti-fibrillogenic properties of cromolyn was confirmed by performing TEM analysis. […] After incubation for 48 hours, 15 μl or the Aβ42 fibril solution were adsorbed on carbon-coated EM grids for 20 min. at room temperature. After 3 washes in sterile PBS and ddH2O, the grids were allowed to dry before negative staining with 2% (w/v) uranyl-acetate water, two times for 8 min. Each grid was then briefly washed in degassed ddH2O, air dried, and imaged by TEM at a magnification of 150,000×.

[4] = tested on: Aβ oligomers; test: 82E1/82E1 ELISA of Aβ oligomers in TBS soluble brain fraction of APP/PS1 mice; format: in vivo, mouse; conditions: one week i.p. treatment
[5] = tested on: pre-existing Aβ42 oligomers (Gluc halves fused with Aβ42); test: Oligomer dissociation assay, split-luciferase, conditioned media; format: biochemical; conditions: added to conditioned media, 10 nM, 10 μM or 1 mM, 12 hours
Procedure: (§1) Aβ agglomeration and oligomer dissociation assays were performed in vitro using an Aβ splitluciferase complementation assay. […] The conditioned media from these cells was collected, 10 nM of coelenterazine was added and the luciferase activity was measured using a Wallac 1420 (PerkinElmer). […] The luciferase activity was measured.

[6] = tested on: ISF Aβx-42 and Aβ oligomers; test: In vivo microdialysis of ISF in APP/PS1 mice, Aβx-42 and Aβ oligomers; parameters: species or system mouse; conditions: 3.15 mg/kg i.p. daily for one week; compared with ISF Aβx-40
[7] = tested on: APP/PS1 transgenic mice; test: Morris water maze in APP/PS1 transgenic mice; format: in vivo, mouse; conditions: versus mock treatment
[8] = tested on: N- and C-terminal fragments of Gaussian luciferase conjugated to Aβ42; test: Aβ split-luciferase complementation assay, oligomer formation in HEK293 cells; format: cell-based
Procedure: as §1

[9] = target: T3, Aβx-42 (Homo sapiens, UniProt P05067); test: Brain extract sandwich ELISA in APP/PS1 mice, Aβx-42; format: in vivo, mouse; conditions: for content of TBS-soluble Aβx-42 / total level of TBS soluble Aβx-42 after 0.5 M Gdn-HCl: seven days; for content of TBS-soluble Aβx-42: APP/PS1 mice; for total level of TBS soluble Aβx-42 after 0.5 M Gdn-HCl: guanidine 37° C. 30 min
T3 construct: commercially available kits BNT77/BA27 for Aβ40 or BNT77/BC05 for Aβx-42; from tissue; host or cells: brain extracts (TBS, Triton, SDS) or hippocampal interstitial fluid of APPswe/PS1dE9 mice

[10] = tested on: Aβ40 and Aβ42; test: Thioflavin T Aβ fibrillization assay; conditions: 5, 50, 5000 nM, one hour incubation at 37° C.
Procedure: In vitro amyloid fibrillization assay was performed using synthetic Aβ peptides (rPeptide, Bogart GA) as well as thioflavin-T (Sigma-Aldrich), respectively dissolved in DMSO and in methanol.
DMSO was used as control. The progression of fibrillization was followed every 10 min. for 60 min. at room temperature by measuring the fluorescence intensity at excitation and emission wavelengths of 450 nm and 480 nm, respectively, using an M3 microplate reader. The results were normalized for background using fluorescent reading at time 0 by the software provided by the M3 plate reader.

[11] = tested on: ISF Aβ; test: ISF Aβ half-life by reverse microdialysis with Compound E in APP/PS1 mice; format: in vivo, mouse; conditions: 3.15 mg/kg
Procedure: The contralateral hippocampus was used for this experiment. […] Aβ levels within the ISF were measured for an additional 5 hours. The single logarithmic plot was made from Aβ levels and extrapolated the half-life of ISF Aβ.

[12] = cited from earlier work
[13] = tested on: Aβ peptides; test: Binding to Aβ peptides
[14] = target: T4, Aβx-40 (Homo sapiens, UniProt P05067); test: Brain extract sandwich ELISA in APP/PS1 mice, Aβx-40; format: in vivo, mouse; conditions: for content of TBS-soluble Aβx-40 / total level of TBS soluble Aβx-40 after 0.5 M Gdn-HCl: seven days; for content of TBS-soluble Aβx-40: APP/PS1 mice; for total level of TBS soluble Aβx-40 after 0.5 M Gdn-HCl: guanidine 37° C. 30 min
T4 construct: commercially available kits BNT77/BA27 for Aβ40 or BNT77/BC05 for Aβx-42; from tissue; host or cells: brain extracts (TBS, Triton, SDS) or hippocampal interstitial fluid of APPswe/PS1dE9 mice

[15] = tested on: monomeric Aβ; test: Immunoblot of 4 kDa Aβ band (6E10, 82E1) in TBS soluble extracts of APP/PS1 mice; format: in vivo, mouse; conditions: one week i.p. treatment
[16] = clinical; conditions: human, in vivo, po, 10 mg, average Cmax of ibuprofen in the CSF
Procedure: The evaluation of the plasma and CSF levels in 24 human subjects under an IND and a phase I study followed a 10 mg or 20 mg oral administration to healthy volunteers (age 55-79).

[17] = 3.15 mg/kg, versus PBS controls

T4 sequence (P05067 672-711 limits assumed): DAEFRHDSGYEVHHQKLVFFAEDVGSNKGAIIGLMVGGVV
T3 sequence (P05067 672-713 limits assumed): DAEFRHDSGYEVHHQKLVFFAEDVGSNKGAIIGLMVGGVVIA
T1 sequence (P05067 672-711 limits assumed): as the sequence (P05067 672-711 limits assumed) above
T2 sequence (P05067 672-713 limits assumed): as the sequence (P05067 672-713 limits assumed) above

In the case of O=C(O)c1cc(=O)c2c(OCC(O)COc3cccc4oc(C(=O)O)cc(=O)c34)cccc2o1 [cromolyn sodium, disodium salt of 5,5′-[(2-hydroxytrimethylene)dioxy]bis [4-oxo-4H-1-benzopyran-2-carboxylate]], the “ISF Aβx-40 level” value [1] is reported as 283 pM, the “decrease of ISF Aβx-40 level” value [1] is reported as 30% and the “amyloid burden and density of amyloid deposits” value [2] is reported as “remained unaffected”. The “formation of Aβ42 fibrils, TEM” value ([3]; 500 nM) was “inhibited”, the “formation of Aβ42 fibrils, TEM” value ([3]; lower concentration (50 nM)) was “no effect was detected” and the “levels of oligomeric aggregates, 82E1/82E1 ELISA” value [4] was “no changes”. For the same compound, the “luminescence signal, pre-existing oligomers” value [5] was “failed to impact the luminescence signal”, the “ISF Aβx-42 and Aβ oligomers” value [6] was “performed similarly” and the “memory capabilities in the Morris water maze tests” value [7] was “prevented lowering memory capabilities”. The “concentration at which the effect on luminescence could be detected” value [8] was “above 10 μM”, the “luminescence signal, oligomer formation” value ([8]; 10 nM, 10 μM or 1 mM, 12 hours) was “significantly decreased the luminescence signal in a dose-dependent manner” and the “content of TBS-soluble Aβx-42” value ([9]; 2.1 mg/kg i.p. daily) was 40.9%. The “total level of TBS soluble Aβx-42 after 0.5 M Gdn-HCl” value ([9]; 2.1 mg/kg) was 63.3%, the “content of TBS-soluble Aβx-42” value ([9]; 3.15 mg/kg i.p. daily) was 46.2% and the “total level of TBS soluble Aβx-42 after 0.5 M Gdn-HCl” value ([9]; 3.15 mg/kg) was 76.1%. The “amount of Aβx-42 extracted in 2% SDS” value [9, 17] was “significantly decreased”, the “amount of Aβx-42 extracted in 2% triton” value [9, 17] was “significantly decreased” and the “Aβ40 and Aβ42 fibrillization, thioflavin T” value [10] was “inhibited Aβ fibril formation in vitro at a nanomolar concentration”. The “shortening of half-life of ISF Aβ versus control” value [11] was “about 50%”, the “time after Compound E at which ISF Aβ levels started to decrease” value [11] was 2 h and the water solubility [12] was “water soluble”. For the same compound, the “binding to Aβ peptides” value [13] was “binds to Aβ peptides”, the “content of TBS-soluble Aβx-40” value ([14]; 2.1 mg/kg i.p. daily) was 39.5% and the “total level of TBS soluble Aβx-40 after 0.5 M Gdn-HCl” value ([14]; 2.1 mg/kg) was 50.7%. For the same compound, the “content of TBS-soluble Aβx-40” value ([14]; 3.15 mg/kg i.p. daily) was 37.1%, the “total level of TBS soluble Aβx-40 after 0.5 M Gdn-HCl” value ([14]; 3.15 mg/kg) was 44.6% and the “amount of Aβx-40 extracted in 2% SDS” value [14, 17] was “significantly decreased”. For the same compound, the “amount of Aβx-40 extracted in 2% triton” value [14, 17] was “significantly decreased” and the “amounts of monomeric Aβ, 4 kDa band” value [15] was “decreased”.
In the case of CC(C)Cc1ccc(C(C)C(=O)O)cc1 (racemic) [ibuprofen, (RS)-2-(4-(2-methylpropyl)phenyl) propanoic acid], the Cmax [16] is listed as 3.94 ± 1.29 ng/mL, the “solubility in organic solvents such as ethanol and acetone” value [12] is listed as “readily soluble” and the solubility in water [12] is listed as less than 1000 µg/mL.
